Test results published in patent publication US11180474B2 (BRISTOL-MYERS SQUIBB COMPANY, priority 2016, dated 2021).

Target: T1, human TLR9 (Homo sapiens, UniProt Q9NR96)
T1 construct: host or cells: HEK-Blue cells
T1 sequence (Q9NR96 26-1032): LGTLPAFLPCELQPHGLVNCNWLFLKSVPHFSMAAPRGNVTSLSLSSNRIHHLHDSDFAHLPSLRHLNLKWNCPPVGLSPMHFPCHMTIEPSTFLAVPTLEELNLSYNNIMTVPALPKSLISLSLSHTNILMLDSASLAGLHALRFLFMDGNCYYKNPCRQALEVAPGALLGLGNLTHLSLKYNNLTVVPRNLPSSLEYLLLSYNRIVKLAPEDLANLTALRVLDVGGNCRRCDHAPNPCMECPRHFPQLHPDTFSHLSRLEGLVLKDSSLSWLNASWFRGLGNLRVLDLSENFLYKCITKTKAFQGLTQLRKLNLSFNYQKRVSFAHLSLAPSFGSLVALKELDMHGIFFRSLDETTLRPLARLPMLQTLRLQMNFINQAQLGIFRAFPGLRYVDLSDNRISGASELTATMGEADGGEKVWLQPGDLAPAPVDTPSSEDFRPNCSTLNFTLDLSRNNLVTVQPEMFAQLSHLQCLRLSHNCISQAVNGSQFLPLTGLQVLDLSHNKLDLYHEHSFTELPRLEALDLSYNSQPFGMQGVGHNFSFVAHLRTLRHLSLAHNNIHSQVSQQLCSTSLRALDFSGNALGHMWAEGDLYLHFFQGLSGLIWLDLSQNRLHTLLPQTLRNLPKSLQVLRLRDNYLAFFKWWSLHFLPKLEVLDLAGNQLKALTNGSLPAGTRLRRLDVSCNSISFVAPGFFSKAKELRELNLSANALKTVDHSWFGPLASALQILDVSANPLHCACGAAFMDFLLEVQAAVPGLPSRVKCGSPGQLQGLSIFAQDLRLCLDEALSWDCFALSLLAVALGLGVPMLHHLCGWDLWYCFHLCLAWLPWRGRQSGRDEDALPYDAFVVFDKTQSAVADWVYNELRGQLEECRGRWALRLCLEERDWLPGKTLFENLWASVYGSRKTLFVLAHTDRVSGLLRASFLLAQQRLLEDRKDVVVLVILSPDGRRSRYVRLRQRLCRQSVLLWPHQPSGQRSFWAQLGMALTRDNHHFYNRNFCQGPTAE
Assay: TLR9 inhibition reporter assay (HEK-Blue cells, SEAP reporter, ODN2006 stimulation)
Assay type: cell-based
Conditions: HEK-Blue cells overexpressing human TLR9, ODN2006 5 nM
How it was run: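 HEK-Blue cells overexpressing human TLR7, TLR8 or TLR9 carry a SEAP reporter driven by NF-κB/AP-1 sites. Compounds (0.05 nM–50 μM) were preincubated 30 min at room temperature, then cells were stimulated with gardiquimod 7.5 μM (TLR7), R848 15.9 μM (TLR8) or ODN2006 5 nM (TLR9) for 22 h at 37 °C.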

| SMILES | IC50 |
| --- | --- |
| COc1ccc(-c2[nH]c3ccc(C4CCN(C(=O)CN5CCC[C@H](C(=O)NCC#N)C5)CC4)cc3c2C(C)C)cc1OC [Example 297, (S)—N-(cyanomethyl)-1-(2-(4-(2-(3,4-dimethoxyphenyl)-3-isopropyl-1H-indol-5-yl)piperidin-1-yl)-2-oxoethyl)piperidine-3-carboxamide] | 3.05 µM |
| COc1ccc(-c2[nH]c3ccc(C4CCN(C(=O)CN5CCC[C@H](C(=O)N6CCCC(O)C6)C5)CC4)cc3c2C(C)C)cc1OC (stereo partly drawn) [Example 292, 1-(4-(2-(3,4-dimethoxyphenyl)-3-isopropyl-1H-indol-5-yl)piperidin-1-yl)-2-((3S)-3-(3-hydroxypiperidine-1-carbonyl)piperidin-1-yl)ethan-1-one] | 1.81 µM |
| COc1ccc(-c2[nH]c3ccc(C4CCN(C(=O)CN5CCC[C@H](C(=O)N6CCC(CCO)CC6)C5)CC4)cc3c2C(C)C)cc1OC [Example 291, (S)-1-(4-(2-(3,4-dimethoxyphenyl)-3-isopropyl-1H-indol-5-yl)piperidin-1-yl)-2-(3-(4-(2-hydroxyethyl)piperidine-1-carbonyl)piperidin-1-yl)ethan-1-one] | 2.31 µM |
| COc1ccc(-c2[nH]c3ccc(C4CCN(C(=O)CN5CCC[C@H](C(=O)NCC(N)=O)C5)CC4)cc3c2C(C)C)cc1OC [Example 298, (S)—N-(2-amino-2-oxoethyl)-1-(2-(4-(2-(3,4-dimethoxyphenyl)-3-isopropyl-1H-indol-5-yl)piperidin-1-yl)-2-oxoethyl)piperidine-3-carboxamide] | 3.94 µM |
| COc1ccc(-c2[nH]c3ccc(C4CCN(CC(=O)N5CCCC(CO)C5)CC4)cc3c2C(C)C)cc1OC (stereo not drawn) [Example 275, 2-(4-(2-(3,4-dimethoxyphenyl)-3-isopropyl-1H-indol-5-yl)piperidin-1-yl)-1-(3-(hydroxymethyl)piperidin-1-yl)ethan-1-one] | 1.66 µM |
| COc1ccc(-c2[nH]c3ccc(C4CCN(C(=O)CN5CCC[C@@H](C(=O)NCC(N)=O)C5)CC4)cc3c2C(C)C)cc1OC [Example 309, (R)—N-(2-amino-2-oxoethyl)-1-(2-(4-(2-(3,4-dimethoxyphenyl)-3-isopropyl-1H-indol-5-yl)piperidin-1-yl)-2-oxoethyl)piperidine-3-carboxamide] | 6.92 µM |
| COc1ccc(-c2[nH]c3ccc(C4CCN(Cc5cnc(C)[nH]5)CC4)cc3c2C(C)C)cc1OC [Example 266, 2-(3,4-dimethoxyphenyl)-3-isopropyl-5-(1-((2-methyl-1H-imidazol-5-yl)methyl)piperidin-4-yl)-1H-indole] | 1.26 µM |
| COc1ccc(-c2[nH]c3ccc(C4CCN(C(=O)CN5CCC[C@@H](C(=O)NCC#N)C5)CC4)cc3c2C(C)C)cc1OC [Example 308, (R)—N-(cyanomethyl)-1-(2-(4-(2-(3,4-dimethoxyphenyl)-3-isopropyl-1H-indol-5-yl)piperidin-1-yl)-2-oxoethyl)piperidine-3-carboxamide] | 2.61 µM |
| COc1ccc(-c2[nH]c3ccc(C4CCN(C(=O)CN5CCCC(CO)C5)CC4)cc3c2C(C)C)cc1OC (stereo not drawn) [Example 249, 1-(4-(2-(3,4-dimethoxyphenyl)-3-isopropyl-1H-indol-5-yl)piperidin-1-yl)-2-(3-(hydroxymethyl)piperidin-1-yl)ethan-1-one] | 0.78 µM |
| COc1ccc(-c2[nH]c3ccc(C4CCN(C(=O)CN5CCOCC5)CC4)cc3c2C(C)C)cc1OC [Example 223, 1-(4-(2-(3,4-dimethoxyphenyl)-3-isopropyl-1H-indol-5-yl)piperidin-1-yl)-2-morpholinoethan-1-one] | ≥ 50 µM |
| COc1ccc(-c2[nH]c3ccc(C4CCN(C(=O)CNC5CCC(O)CC5)CC4)cc3c2C(C)C)cc1OC (stereo not drawn) [Example 246, 1-(4-(2-(3,4-dimethoxyphenyl)-3-isopropyl-1H-indol-5-yl)piperidin-1-yl)-2-((4-hydroxycyclohexyl)amino)ethan-1-one] | 0.664 µM |
| COc1ccc(-c2[nH]c3ccc(C4CCN(C(=O)CN(C)CCO)CC4)cc3c2C(C)C)cc1OC [Example 242, 1-(4-(2-(3,4-dimethoxyphenyl)-3-isopropyl-1H-indol-5-yl)piperidin-1-yl)-2-((2-hydroxyethyl)(methyl)amino)ethan-1-one] | 0.976 µM |
| CCN(CC)C(=O)C1CCCN(C(=O)CN2CCC(c3ccc4[nH]c(-c5ccc(OC)c(OC)c5)c(C(C)C)c4c3)CC2)C1 (stereo not drawn) [Example 272, 1-(2-(4-(2-(3,4-dimethoxyphenyl)-3-isopropyl-1H-indol-5-yl)piperidin-1-yl)acetyl)-N,N-diethylpiperidine-3-carboxamide] | 3.4 µM |
| COc1ccc(-c2[nH]c3ccc(C4CCN(C(=O)CN5CCC[C@H](C(=O)N6CCC(N(C)C)CC6)C5)CC4)cc3c2C(C)C)cc1OC [Example 289, (S)-1-(4-(2-(3,4-dimethoxyphenyl)-3-isopropyl-1H-indol-5-yl)piperidin-1-yl)-2-(3-(4-(dimethylamino)piperidine-1-carbonyl)piperidin-1-yl)ethan-1-one] | 0.502 µM |
| COc1ccc(-c2[nH]c3ccc(C4CCN(C(=O)CNCC(N)=O)CC4)cc3c2C(C)C)cc1OC [Example 228, 2-((2-(4-(2-(3,4-dimethoxyphenyl)-3-isopropyl-1H-indol-5-yl)piperidin-1-yl)-2-oxoethyl)amino)acetamide] | 15.1 µM |
| COc1ccc(-c2[nH]c3ccc(C4CCN(C5C[C@H]6CC[C@@H](C5)N6C)CC4)cc3c2C)cc1OC (stereo partly drawn) [Example 21, 2-(3,4-dimethoxyphenyl)-3-methyl-5-(1-((1R,5S)-8-methyl-8-azabicyclo[3.2.1]octan-3-yl)piperidin-4-yl)-1H-indole] | 0.083 µM |
| COc1ccc(-c2[nH]c3ccc(C4CCN(C(=O)CN5CCC[C@@H](C(=O)N6CCN(C(C)C)CC6)C5)CC4)cc3c2C(C)C)cc1OC [Example 302, (R)-1-(4-(2-(3,4-dimethoxyphenyl)-3-isopropyl-1H-indol-5-yl)piperidin-1-yl)-2-(3-(4-isopropylpiperazine-1-carbonyl)piperidin-1-yl)ethan-1-one] | 0.564 µM |
| COc1ccc(-c2[nH]c3ccc(C4CCN(CC(=O)N5CC[C@H](O)C5)CC4)cc3c2C(C)C)cc1OC [Example 278, (S)-2-(4-(2-(3,4-dimethoxyphenyl)-3-isopropyl-1H-indol-5-yl)piperidin-1-yl)-1-(3-hydroxypyrrolidin-1-yl)ethan-1-one] | 2.87 µM |
| COc1ccc(-c2[nH]c3ccc(C4CCN(C(=O)CNC5CCCC5O)CC4)cc3c2C(C)C)cc1OC (stereo not drawn) [Example 236, 1-(4-(2-(3,4-dimethoxyphenyl)-3-isopropyl-1H-indol-5-yl)piperidin-1-yl)-2-((2-hydroxycyclopentyl)amino)ethan-1-one] | 1.38 µM |
| COc1ccc(-c2[nH]c3ccc(C4CCN(C(=O)CN5CCCC(C(=O)NC6CCN(C(C)C)CC6)C5)CC4)cc3c2C(C)C)cc1OC (single isomer, unassigned) [Example 280, 1-(2-(4-(2-(3,4-dimethoxyphenyl)-3-isopropyl-1H-indol-5-yl)piperidin-1-yl)-2-oxoethyl)-N-(1-isopropylpiperidin-4-yl)piperidine-3-carboxamide] | 0.417 µM |
| COc1ccc(-c2[nH]c3ccc(C4CCN(CC(=O)N[C@H]5CC[C@H](C(C)(C)O)CC5)CC4)cc3c2C(C)C)cc1OC [Example 279, 2-(4-(2-(3,4-dimethoxyphenyl)-3-isopropyl-1H-indol-5-yl)piperidin-1-yl)-N-((1r,4r)-4-(2-hydroxypropan-2-yl)cyclohexyl)acetamide] | 18 µM |
| COc1ccc(-c2[nH]c3ccc(C4CCN(C(=O)C[C@H](C)N)CC4)cc3c2C(C)C)cc1OC [Example 253, (S)-3-amino-1-(4-(2-(3,4-dimethoxyphenyl)-3-isopropyl-1H-indol-5-yl)piperidin-1-yl)butan-1-one] | 0.445 µM |
| COc1ccc(-c2[nH]c3ccc(C4CCN(C(=O)CNCCC(C)O)CC4)cc3c2C(C)C)cc1OC (stereo not drawn) [Example 237, 1-(4-(2-(3,4-dimethoxyphenyl)-3-isopropyl-1H-indol-5-yl)piperidin-1-yl)-2-((3-hydroxybutyl)amino)ethan-1-one] | 1.16 µM |
| COc1ccc(-c2[nH]c3ccc(C4CCN(C(=O)CN5CCCC(C(=O)NC6CCN(C(C)C)CC6)C5)CC4)cc3c2C(C)C)cc1OC (single isomer, unassigned) [Example 281, 1-(2-(4-(2-(3,4-dimethoxyphenyl)-3-isopropyl-1H-indol-5-yl)piperidin-1-yl)-2-oxoethyl)-N-(1-isopropylpiperidin-4-yl)piperidine-3-carboxamide] | 0.586 µM |
